Results reported in article PMC8622842, “Absolute Structure Determination and Kv1.5 Ion Channel Inhibition Activities of New Debromoaplysiatoxin Analogues” (Marine Drugs, 2021).
Entries after “also recorded” stand apart in the source; their conditions may differ. Where two headings read alike, the source gives them in different places.

Assays:
human Kv1.5 channels = molecular target: T1, human Kv1.5 channels (Homo sapiens, UniProt P22460); assay: Kv1.5 current inhibition, whole-cell electrophysiology in LTK cells stably expressing human Kv1.5; assay type: cell-based; conditions: for Voltage dependence of Kv1.5 current inhibition: tested potentials -50 mV to 50 mV
T1 construct: expressed in transfected cells
T1 sequence (P22460 whole entry): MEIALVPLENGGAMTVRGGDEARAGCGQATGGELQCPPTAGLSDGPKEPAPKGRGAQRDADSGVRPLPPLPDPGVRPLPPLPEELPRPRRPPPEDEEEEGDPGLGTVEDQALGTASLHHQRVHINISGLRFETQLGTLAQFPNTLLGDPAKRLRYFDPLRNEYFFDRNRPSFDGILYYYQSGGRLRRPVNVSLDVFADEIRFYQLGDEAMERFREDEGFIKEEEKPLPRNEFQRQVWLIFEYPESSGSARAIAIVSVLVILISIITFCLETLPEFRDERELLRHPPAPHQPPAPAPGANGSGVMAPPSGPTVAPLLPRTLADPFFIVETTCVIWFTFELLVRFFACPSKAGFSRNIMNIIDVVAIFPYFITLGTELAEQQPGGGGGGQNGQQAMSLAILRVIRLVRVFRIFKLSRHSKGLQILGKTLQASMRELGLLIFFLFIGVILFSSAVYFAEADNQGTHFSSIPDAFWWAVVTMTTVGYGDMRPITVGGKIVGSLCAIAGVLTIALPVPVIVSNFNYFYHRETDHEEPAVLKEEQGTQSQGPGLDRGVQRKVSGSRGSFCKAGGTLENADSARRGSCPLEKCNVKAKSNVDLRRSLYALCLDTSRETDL
Experimental: For culturing mouse L cells lacking thymidine kinase (LTK) cells stably expressing human Kv1.5 channels (LTK/Kv1.5), 10% fetal bovine serum (FBS), 10,000 U/ml penicillin G and 10 mg/ml streptomycin were added into Dulbecco’s Modified Eagle Media (DMEM). LTK/Kv1.5 cells were cultured in a 37 °C humidified incubator set to 5% CO2. The amount of 100 μg/ml Genetic (G418) was added into the culture media to select transgenic cells. When the cells grew to 75–85% confluence, they were passaged for subsequent electrophysiological records (Supplementary Materials 1.3.1.1).
LTK cells cultured for at least 24 h could be used for currents recording. For Kv1.5 potassium current recording, the recording micropipettes were pulled with a P97 microelectrode puller (Sutter, CA, USA) with a resistance of about 3 MΩ when filling with internal solution containing the following: KCl 140 mM, MgCl2 1 mM, EGTA 5 mM, HEPES 10 mM and MgATP 1 mM (pH was adjusted to 7.25 by KOH). The bath solution contained the following: NaCl 137 mM, KCl 5.4 mM, CaCl2 1.8 mM, MgCl2 1 mM, Glucose 10 mM and HEPES 10 mM (pH was adjusted to 7.4 by NaOH). Kv1.5 currents were recorded at room temperature (22–24 °C) by PulseMaster (Version 2.65, Heka, Lambrecht, Germany) via an EPC-10 USB amplifier (Heka, Lambrecht, Germany). In order to reduce recording errors, cells with seal resistance above 1 GΩ and series resistance that was fully compensated above 80% were used. Leak compensation was used to compensate the leak current and to subtract the capacitive artifacts (Supplementary Materials 1.3.1.2).
1.3.1. Ion Channel Experiment
For culturing mouse L cells lacking thymidine kinase (Ltk−) cells stably expressing human Kv1.5 channels (Ltk−/Kv1.5), 10% fetal bovine serum (FBS), 10,000 U/ml penicillin G and 10 mg/ml streptomycin were added into Dulbecco's Modified Eagle Media (DMEM). Ltk−/Kv1.5 cells were cultured in a 37 °C humidified incubator set to 5% CO2. 100 μg/ml Genetic (G418) was added into the culture media to select transgenic cells. When the cells grew to 75% - 85% confluent, they were passaged for subsequent electrophysiological records.μ1.3.1.2.
1.3.1.2. Electrophysiology
Ltk− cells cultured for at least 24 h could be used for currents recording. For Kv1.5 potassium currents recording, the recording micropipettes were pulled with a P97 microelectrode puller (Sutter, CA, USA) with a resistance about 3 MΩ when filling with internal solution containing: KCl 140 mM, MgCl2 1 mM, EGTA 5 mM, HEPES 10 mM, MgATP 1 mM (pH was adjusted to 7.25 by KOH). The bath solution contained: NaCl 137 mM, KCl 5.4 mM, CaCl2 1.8 mM, MgCl2 1 mM, Glucose 10 mM, HEPES 10 mM (pH was adjusted to 7.4 by NaOH). Kv1.5 currents were recorded at room temperature (22–24°C) by PulseMaster (Version 2.65, Heka, Lambrecht, Germany) via an EPC-10 USB amplifier (Heka, Lambrecht, Germany).
To reduce recording errors, cells with seal resistance above 1 GΩ and series resistance was fully compensated above 80% were used. Leak compensation was used to compensate the leak current and to subtract the capacitive artifacts
Cells with amplitudes above 1 nA, series resistance less than 10 MΩ and leak compensation below 200 pA were chosen for data analysis. Kv1.5 currents were evoked by a 300 ms depolarizing pulse from -50 mV to 50 mv in 20 mV increments from a holding potential of -70 mV. The current amplitude at the end of 300-ms pulse was measured. The IC50 and Hill coefficient (n) was obtained by fitting concentration dependence data to the equation of I (%) = 1/{1+(IC50/[D]) n} in which I (%) is the percent inhibition of current (I (%) = [1-Idrug/Icontrol] ×100) at test potential and [D] represents various drug concentrations . The measured error at the end of relative short 300 ms pulse was limited and the fitted IC 50 was acceptable. For steady-state activation curves were fitted with the Boltzmann function: G/Gmax =1/{1+exp[−(V-V1/2)/k]}, where V is a membrane potential and the Nernst K + equilibrium potential EK was calculated as−80 mV. G was […]

Artemia salina = assay: whole plant or invertebrate; assay type: in vivo; conditions: for Effect on brine shrimp A. salina: at 30 µM
Experimental: Brine shrimp A. salina is an important model organism for ecosystems, and because of its high sensitivity and easy availability, it can be used in laboratory settings to study toxic effects and to provide safe results. A. salina or brine shrimp cysts were cultivated in 3.2% of saline water. After aeration with normal saline, cysts were placed at temperature for 24 h and then cultured. For toxicity screening, hatched larvae were collected and introduced in saline water. Add 0.9% brine and 30 larvae with good activity to each well to produce a 96-well test culture plate. New compounds of 0.1 µM, 1 µM, 10 µM and 30 µM and DAT were added to the experimental culture plate, respectively. Dimethyl sulfoxide (Aladdin, Shanghai, China) and dichloromethane (Aladdin, Shanghai, China) were added as blank control and positive control. The survival rate of A. salina was calculated after 24 h treatment at 25 °C.
Commercially available Artemia salina (A. salina) or brine shrimp cysts were purchased and cultivated in 3.2% of saline water. Before cultivation, the saline was aerated, and then cysts were kept at room temperature for 24 h. For toxicity screening, hatched larvae were collected and introduced in saline water. Add saline water and equivalent larvae in per well of 96 wells to make test culture plate. Aplysiatoxins with 0.1 μM, 1 μM, 10 μM, 30 μM was added to test culture plate, while DMSO and dichloromethane were added as blank control test and positive control separately. After 24 h in 25 °C, the percent of survival of A. salina was calculated.
Table S1.3.2.1. Effect of compounds 1-4 to Artemia salina (A. salina) . A. salina were treated with indicated concentration (0.1 µM, 1 µM, 10 µM, 30 µM) of dichloromethane (DCM), debromoaplysiatoxin (DAT), oscillatoxin J, oscillatoxin K, oscillatoxin L, oscillatoxin M, Methylenechloride, Control for 24 h. The percentage of A. salina with all different kinds of […]
Compounds Percentage of Survival of Artemia salina after 24 h (μM) […]
Figure S1.3.2.1. Effect of debromoaplysiatoxin to Artemia salina (A. salina). […]
(also on this page, place not known: compound s , , , , J K L M . USA) -1.5 -1.0 -0.5 0.0 0 20 40 60 80 100 LogCon.
(1 picture or pasted object on this page, not shown here)

phosphor PKCδ = test system: phosphor PKCδ; parameters: method as in PMID 35521179; conditions: HepG2, 10 µM; cited from earlier work
Kv1.2 channel = test system: Kv1.2 channel; parameters: method as in PMID 18313714; conditions: read-out: IC50 against Kv1.2 channel; cited from earlier work

| Compound | IC50 (human Kv1.5 channels; current at end of 300 ms pulse at 50 mV, 0.3-10 µM, mean ± SEM of 3 to 5 measurements, read-out: IC50 of Kv1.5 current inhibition) [µM] | Voltage dependence of Kv1.5 current inhibition (human Kv1.5 channels) | Percentage of Survival of Artemia salina after 24 h (Artemia salina; 0.1 µM, 24 h) [%] | Percentage of Survival of Artemia salina after 24 h (Artemia salina; 1 µM, 24 h) [%] | Percentage of Survival of Artemia salina after 24 h (Artemia salina; 10 µM, 24 h) [%] | Percentage of Survival of Artemia salina after 24 h (Artemia salina; 30 µM, 24 h) [%] | Effect on brine shrimp A. salina (Artemia salina) | IC50 (human Kv1.5 channels) [µM] | Effect on Kv1.5 (human Kv1.5 channels; at 10 µM) | Expression of phosphor PKCδ (phosphor PKCδ) | Concentration at which survival of Artemia salina began to be affected (Artemia salina; 24 h) [µM] | IC50 (Artemia salina; Artemia salina, 0.05-0.5 µM, read-out: IC50 of brine shrimp toxicity (survival of A. salina)) [nM] | IC50 (Kv1.2 channel) [nM] |
| --- | --- | --- | --- | --- | --- | --- | --- | --- | --- | --- | --- | --- | --- |
| CO[C@@H](CC[C@H](C)[C@H]1O[C@@]23C[C@H](OC(=O)C[C@H]([C@@H](C)O)OC(=O)/C=C(\O2)C(C)=CC3(C)C)[C@@H]1C)c1cccc(O)c1 [Compound 1, oscillatoxin J] | 2.61 ± 0.91 | voltage dependently inhibited | 96.62±0.37 | 95.87±0.7 | 95±1.52 | 93.61±5.11 | no apparent effect | – | – | – | – | – | – |
| CO[C@@H](CC[C@H](C)[C@H]1O[C@]23C[C@H](OC(=O)C[C@H]([C@@H](C)O)OC(=O)[C@H](O)C(=C(C)CC2(C)C)O3)[C@@H]1C)c1cccc(O)c1 [Compound 2, oscillatoxin K] | – | voltage dependently inhibited | 96.63±0.05 | 96.05±0.07 | 95.23±0.19 | 89.97±7.12 | no apparent effect | 3.86 ± 1.03 | – | – | – | – | – |
| CO[C@@H](CC[C@H](C)[C@H]1O[C@@]23C[C@H](OC(=O)C[C@H]([C@@H](C)O)OC(=O)C[C@](O)(O2)[C@@](C)(O)CC3(C)C)[C@@H]1C)c1cccc(O)c1 [Compound 3, oscillatoxin L] | – | – | 97.74±1.60 | 98.89±1.57 | 96.37±0.28 | 73.38±9.64 | no apparent effect | > 10 | minimum effects; also recorded: no apparent Kv1.5 inhibition activity | – | – | – | – |
| COC(CCC(C)C1OC23CC(OC(=O)CC(C(C)O)OC(=O)CC(C)(O2)C(=O)CC3(C)C)C1C)c1cccc(O)c1 (stereo not shown) [Compound 4, oscillatoxin M] | – | voltage dependently inhibited | 95.13±1.09 | 96.29±0.11 | 96.15±0.12 | 82.27±6.13 | no apparent effect | 3.79 ± 1.01 | – | – | – | – | – |
| CO[C@@H](CC[C@H](C)[C@H]1O[C@@]23C[C@H](OC(=O)C[C@H]([C@@H](C)O)OC(=O)C[C@](O)(O2)[C@H](C)CC3(C)C)[C@@H]1C)c1cccc(O)c1 [Compound 5, debromoaplysiatoxin] | – | – | 87.19±0.74 | 2.96±2.1 | 0 | 0 | – | – | – | strongly upregulating | 0.1 | 340 ± 36 | – |
| C=CC/C=C\C=C/[C@H]1O[C@H]2C[C@H]3O[C@H]4CC[C@H]5O[C@H]6C[C@@]7(C)O[C@@]8(C)[C@@H](O)C[C@H](CCCO)O[C@@H]8C[C@@H]7O[C@@H]6C[C@@H]5O[C@]4(C)C[C@]3(C)O[C@@H]2C=C[C@]1(C)O [Gambierol] | – | – | – | – | – | – | – | – | – | – | – | – | 34.5 ± 1.5 |
| ClCCl [Methylenechloride, dichloromethane, reference compound] | – | – | 0 | 0 | 0 | 0 | – | – | – | – | – | – | – |
